Data set [1] has as its target T1, [3H]-emopamil binding site (Cavia porcellus, UniProt Q60490).
T1 construct: from tissue; host or cells: guinea pig liver membranes
T1 sequence (Q60490 1-229): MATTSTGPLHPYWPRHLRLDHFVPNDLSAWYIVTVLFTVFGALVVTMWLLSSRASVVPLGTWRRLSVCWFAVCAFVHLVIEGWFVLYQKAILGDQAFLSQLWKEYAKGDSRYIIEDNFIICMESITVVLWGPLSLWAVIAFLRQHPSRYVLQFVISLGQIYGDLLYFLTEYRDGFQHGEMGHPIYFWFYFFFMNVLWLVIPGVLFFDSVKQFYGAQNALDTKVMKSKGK
Put plainly: 3H-Emopamil binding to guinea pig liver membranes. Conditions: displacement of 0.96 nM (-)-3H-emopamil, 60 minutes at 37° C. As to the method:
^3H-Emopamil Binding to Guinea Pig Liver Membranes
The method of (−)-^3H-emopamil binding was a modification of Zech, C., Staudinger R., Mühlbacher, J. and Glossmann, H. Novel sites for phenylalkylamines: characterization of a sodium-sensitive drug receptor with (−)-^3H-emopamil. Eur. J. Pharm. 208: 119-130, 1991.
The reaction mixture contained:
Assay buffer: 10 mM Tris-HCl, 0.1 mM phenylmethylsulfonyl fluoride (PMSF), 0.2% bovine serum albumin (BSA), pH 7.4 at 4° C.
Radioligand: 0.96 nM (−)-^3H-emopamil (Amersham).
Guinea pig liver membranes: 40 mg/mL original wet weight.
This mixture was incubated for 60 minutes at 37° C. The incubation was terminated by filtering with a Brandel Cell Harvester over Whatman GF/C filters that had been soaked for at least 120 minutes in 0.3% polyethylenimine (PEI) and washed three times with 5 mL of wash buffer containing 10 mM Tris-HCl, 10 mM MgCl2, 0.2% BSA, pH 7.4 at 25° C. Specific binding was defined with 10 μM emopamil. […]
Guinea-pig liver membrane preparation: Male guinea pigs were sacrificed by CO2 asphyxiation with dry ice. The livers were quickly excised and weighed and rinsed in membrane preparation buffer containing 10 mM Hepes, 1 mM Tris base-EDTA, 250 mM […] Teflon-glass homogenizer with three strokes on ice. […]

The test system of data set [2] is L-type voltage sensitive calcium channels (3H-D888 binding site). The experiment in a line: 3H-D-888 binding to rat brain cortical membranes. The following applies: displacement of 3H-D888, rat cortical membranes, 60 minutes at 25° C. As to the method:
^3H-D-888 Binding to Rat Brain Cortical Membranes
The method of ^3H-D-888 binding was a modification of Reynolds, I. J., Snowman, A. M. and Synder, S. H. (−)-[^3H] Desmethoxyverapamil labels multiple calcium channel modular receptors in brain and skeletal muscle membranes: differentiation by temperature and dihydropyridines. J. Pharmacol. Exp. Ther. 237: no.3, 731-738, 1986.
The assay tubes contained the following: assay buffer: 50 mM Hepes, 0.2% BSA, pH 7.4 radioligand: 1 πM ^3H-D888 (Amersham) rat cortical membranes: 6 mg/ml original wet weight
This mixture was incubated for 60 minutes at 25° C. The assay was terminated by filtering with a Brandel Cell Harvester over Whatman GF/C filters that had been soaked for at least 120 minutes in 0.3% polyethylenamine (PEI) and washed three times with 5 mL of wash buffer containing 20 mM Hepes, 20 mM MgCl2, pH 7.4. Specific binding was measured with 10 μM methoxyverapamil (D-600). This assay was used to determine in vitro selectivity of compounds vs. L-type voltage sensitive calcium channels, i.e high affinity for the ^3H-D888 binding site would show a lack of selectivity. For example the compound of Example 4 gave a value of about 19.000 nM in this test.
Rat brain cortical membrane preparation: Male Sprague-Dawley Rats were sacrificed by decapitation and the brains were quickly excised. […]
In general terms: Displacement assays read how much labelled ligand stays bound in the presence of the test substance.

Molecules are shown by their SMILES. Where a name gives a salt, the structure may show the parent alone.

One may read the melting point as the temperature, or range, at which the solid turns liquid. `COc1cccc2c1CCCC2N1CCCN(C)CC1` (centres unmarked) (as salt: hydrochloride) [Example 7, 1-Methyl-4-(5-methoxy-1,2,3,4-tetrahydro-1-naphthalenyl)homopiperazine] had a melting point of 172.2 to 176.6 °C.

For the molecule `CC(C)N1CCCN(C2CCCc3ccccc32)CC1` (centres unmarked) (as salt: hydrochloride) [Example 13, 1-Isopropyl-4-(1,2,3,4-tetrahydro-1-naphthalenyl)homopiperazine], the melting point lay within 149.5 to 151 °C.

`CN1CCCN(C2CCCc3ccccc32)CC1` (centres unmarked) (as salt: maleate) [Example 1, 1-Methyl-4-(1,2,3,4-tetrahydro-1-naphthalenyl)homopiperazine]: the melting point lay in the range of 125.4 to 126.3 °C.

Molecule `c1ccc2c(c1)CCCC2N1CCCNCC1` (centres unmarked) (as salt: salt) [Example 2, N-(1,2,3,4-Tetrahydro-1-naphthalenyl)homopiperazine] displayed a melting point of 107 to 109.4 °C.

`CN1CCCN(C2CCCc3cc(F)ccc32)CC1` (centres unmarked) (as salt: salt) [Example 16, 1-Methyl-4-(6-fluoro-1,2,3,4-tetrahydro-1-naphthalenyl)homopiperazine]: the melting point lay in the range of 78.8 to 79.5 °C.

`CCc1ccc2c(c1)CCCC2N1CCCN(C)CC1` (centres unmarked) (as salt: salt) [Example 25, 1-Methyl-4-(6-ethyl-1,2,3,4-tetrahydro-1-naphthalenyl)homopiperazine] showed a melting point of 131.5 to 132.8 °C.

In general, IC50 refers to the concentration that gives 50% inhibition. A high value points to lower potency. `CN1CCCN([C@H]2CCCc3ccccc32)CC1` [Example 4, S(+) 1-Methyl-4-(1,2,3,4-tetrahydro-1-naphthalenyl)homopiperazine] came in with an IC50 in data set [1] of 0.017 µM. The “value in 3H-D-888 binding test (in vitro selectivity vs. L-type VSCC)” value in data set [2] is “about 19.000 nM”.

The values are drawn from patent US6417183B1, “1,4-diazacycloheptane derivatives” (Astrazenela UK Limited, priority 1997, dated 2002).
